Measurements reported in patent publication US6355799B1, “Substituted benzene compounds, process for their preparation, and herbicidal and defoliant compositions containing them” (ISK Americas Incorporated, priority 1997, dated 2002).

Columns and labels:
Type in all cases: in vivo
[1] = test system: field corn (Zea mays L., var. Dekalb 535, CORN); assay: Post-emerge test, crop safety; conditions: post-emerge, 14 days after application, rating scale 0-100
Method in brief: (§1)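 Plants grown in 10 cm pots of sandy loam mix received acetone-dissolved compounds through a moving flat-fan nozzle. Doses ranged from 15 to 1000 g ai/ha. Pre-emerge pots were seeded one day earlier, post-emerge pots 8–21 days earlier. Fourteen days on, each pot was graded 0–100 for damage.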

[2] = test system: upland rice (Oryza sp., var. Tebonnet, RICE); assay: Post-emerge test, crop safety; conditions: post-emerge, 14 days after application, rating scale 0-100
Method in brief: as §1

[3] = test system: common ragweed (Ambrosia artemisizfolia L., AMBEL); assay: Pre-emerge test, greenhouse herbicide activity screening; conditions: phytotoxicity rating 0-100, 14 days after application
Method in brief: (§2)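 Rating: 0–100 visual injury, 14 DAA. Application: acetone, 187 l/ha, 15–1000 g ai/ha, flat-fan track sprayer with nozzle 40–45 cm above soil or canopy. Post-emerge runs used 0.25% v/v surfactant on 2–3 leaf plants.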

[4] = test system: lambsquarters (Chenopodium album, CHEAL); assay: as above; conditions: phytotoxicity rating 0-100, 14 days after application
Method in brief: as §2

[5] = test system: large crabgrass (Digitaria sanguinalis, DIGSA); assay: as above; conditions: phytotoxicity rating 0-100, 14 days after application
Method in brief: as §2

[6] = test system: johnsongrass (Sorghum halepense, SORHA); assay: as above; conditions: phytotoxicity rating 0-100, 14 days after application
Method in brief: as §2

[7] = test system: ivyleaf morningglory (Ipomoea hederacea, IPOHE); assay: as above; conditions: phytotoxicity rating 0-100, 14 days after application
Method in brief: as §2

[8] = test system: barnyardgrass (Echinochloa crus-galli, ECHCG); assay: as above; conditions: phytotoxicity rating 0-100, 14 days after application
Method in brief: as §2

[9] = test system: velvetleaf (Abutilon theophrasti, ABUTH); assay: as above; conditions: phytotoxicity rating 0-100, 14 days after application
Method in brief: as §2

[10] = test system: sicklepod (Cassia obtusifolia, CASOB); assay: as above; conditions: phytotoxicity rating 0-100, 14 days after application
Method in brief: as §2

[11] = test system: green foxtail (Setaria viridis, SETVI); assay: as above; conditions: phytotoxicity rating 0-100, 14 days after application
Method in brief: as §2

[12] = test system: field corn (Zea mays L., var. Dekalb 535, CORN); assay: Pre-emerge test, crop safety; conditions: crop damage rating 0-100, 14 days after application
Method in brief: (§3)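 Sandy loam pots; pre-emerge: sown 1 d pre-spray, surface-watered after, then bottom-watered. Post-emerge: sown 8–21 d before, 2–3 leaf stage, + 0.25% v/v NIS, bottom-watered. Acetone, 187 l/ha track spray, 15–1000 g ai/ha. 0–100 injury score, day 14.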

[13] = test system: upland rice (Oryza sp., var. Tebonnet, RICE); assay: Pre-emerge test, crop safety; conditions: crop damage rating 0-100, 14 days after application
Method in brief: as §3

[14] = test system: lambsquarters (Chenopodium album, CHEAL); assay: Post-emerge test, greenhouse herbicide activity screening; conditions: post-emerge, 14 days after application, rating scale 0-100
Method in brief: (§4)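 Fourteen days after spraying, crop and weed injury was graded visually from 0, no effect, to 100, every plant dead. Test substances were dissolved in acetone and applied at 15–1000 g ai/ha with a flat-fan nozzle. Application was either pre-emergence, one day after sowing, or post-emergence at the 2–3 leaf stage.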

[15] = test system: large crabgrass (Digitaria sanguinalis, DIGSA); assay: as above; conditions: post-emerge, 14 days after application, rating scale 0-100
Method in brief: as §4

[16] = test system: johnsongrass (Sorghum halepense, SORHA); assay: as above; conditions: post-emerge, 14 days after application, rating scale 0-100
Method in brief: as §4

[17] = test system: ivyleaf morningglory (Ipomoea hederacea, IPOHE); assay: as above; conditions: post-emerge, 14 days after application, rating scale 0-100
Method in brief: as §4

[18] = test system: redroot pigweed (Amaranthus retroflexus, AMARE); assay: as above; conditions: post-emerge, 14 days after application
Method in brief: as §4

[19] = test system: barnyardgrass (Echinochloa crus-galli, ECHCG); assay: as above; conditions: post-emerge, 14 days after application, rating scale 0-100
Method in brief: as §4

[20] = test system: velvetleaf (Abutilon theophrasti, ABUTH); assay: as above; conditions: post-emerge, 14 days after application, rating scale 0-100
Method in brief: as §4

[21] = test system: sicklepod (Cassia obtusifolia, CASOB); assay: as above; conditions: post-emerge, 14 days after application, rating scale 0-100
Method in brief: as §4

[22] = test system: green foxtail (Setaria viridis, SETVI); assay: as above; conditions: post-emerge, 14 days after application, rating scale 0-100
Method in brief: as §4

[23] = test system: redroot pigweed (Amaranthus retroflexus, AMARE); assay: Pre-emerge test, greenhouse herbicide activity screening; conditions: phytotoxicity rating 0-100, 14 days after application
Method in brief: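 Compounds in acetone were track-sprayed at 15-1000 g ai/ha (187 l/ha) on sandy loam pots: pre-emerge one day after seeding, post-emerge at 2-3 leaf stage with 0.25% v/v non-ionic surfactant. Phytotoxicity was rated 14 days later on a 0 (no damage) to 100 (complete death) scale.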

Cn1c(C(F)(F)F)cc(=O)n(-c2ccc(Cl)cc2NC(=O)OCc2ccccc2F)c1=O [4-49]
90: Pre-emerge Herbicidal Activity SORHA ([6]; 250 g ai/ha)
10: phytotoxicity rating RICE (crop damage) ([2]; 63 g ai/ha) | Pre-emerge Herbicidal Activity ECHCG ([8]; 63 g ai/ha) | phytotoxicity rating DIGSA ([15]; 63 g ai/ha) | phytotoxicity rating DIGSA ([15]; 250 g ai/ha) | phytotoxicity rating SORHA ([16]; 250 g ai/ha) | phytotoxicity rating ECHCG ([19]; 63 g ai/ha) | phytotoxicity rating ECHCG ([19]; 250 g ai/ha)
75: Pre-emerge Herbicidal Activity ECHCG ([8]; 250 g ai/ha)
25: Pre-emerge Herbicidal Activity RICE ([13]; 250 g ai/ha)
80: phytotoxicity rating CORN (crop damage) ([1]; 250 g ai/ha) | Pre-emerge Herbicidal Activity AMBEL ([3]; 63 g ai/ha) | phytotoxicity rating IPOHE ([17]; 63 g ai/ha) | phytotoxicity rating CASOB ([21]; 63 g ai/ha)
60: Pre-emerge Herbicidal Activity AMBEL ([3]; 250 g ai/ha) | Pre-emerge Herbicidal Activity CASOB ([10]; 250 g ai/ha)
15: Pre-emerge Herbicidal Activity CORN ([12]; 250 g ai/ha)
0: Pre-emerge Herbicidal Activity CORN ([12]; 63 g ai/ha) | phytotoxicity rating SORHA ([16]; 63 g ai/ha)
95: Pre-emerge Herbicidal Activity ABUTH ([9]; 63 g ai/ha)
30: Pre-emerge Herbicidal Activity CASOB ([10]; 63 g ai/ha) | Pre-emerge Herbicidal Activity RICE ([13]; 63 g ai/ha) | phytotoxicity rating SETVI ([22]; 63 g ai/ha) | phytotoxicity rating SETVI ([22]; 250 g ai/ha)
100: Pre-emerge Herbicidal Activity CHEAL ([4]; 63 g ai/ha) | Pre-emerge Herbicidal Activity CHEAL ([4]; 250 g ai/ha) | Pre-emerge Herbicidal Activity DIGSA ([5]; 250 g ai/ha) | Pre-emerge Herbicidal Activity IPOHE ([7]; 250 g ai/ha) | Pre-emerge Herbicidal Activity ABUTH ([9]; 250 g ai/ha) | Pre-emerge Herbicidal Activity SETVI ([11]; 250 g ai/ha) | phytotoxicity rating CHEAL ([14]; 63 g ai/ha) | phytotoxicity rating CHEAL ([14]; 250 g ai/ha) | phytotoxicity rating IPOHE ([17]; 250 g ai/ha) | phytotoxicity rating AMARE ([18]; 63 g ai/ha, rating scale 0-100 (0 no damage, 100 complete death)) | phytotoxicity rating AMARE ([18]; 250 g ai/ha, rating scale 0-100) | phytotoxicity rating ABUTH ([20]; 63 g ai/ha) | phytotoxicity rating ABUTH ([20]; 250 g ai/ha) | phytotoxicity rating CASOB ([21]; 250 g ai/ha) | Pre-emerge Herbicidal Activity AMARE ([23]; 63 g ai/ha) | Pre-emerge Herbicidal Activity AMARE ([23]; 250 g ai/ha)
40: Pre-emerge Herbicidal Activity IPOHE ([7]; 63 g ai/ha)
70: phytotoxicity rating RICE (crop damage) ([2]; 250 g ai/ha) | Pre-emerge Herbicidal Activity DIGSA ([5]; 63 g ai/ha) | Pre-emerge Herbicidal Activity SETVI ([11]; 63 g ai/ha)
50: Pre-emerge Herbicidal Activity SORHA ([6]; 63 g ai/ha)
20: phytotoxicity rating CORN (crop damage) ([1]; 63 g ai/ha)
